According to a compilation of properties of binary mixtures (doi:10.1039/b315616h):

Assay: xn = mol fraction of the nth substance listed
Settings: 101.3 kPa, x2 = 0.865

For `CCCCCC[n+]1ccn(C)c1.F[B-](F)(F)F` + CCCCCO, the viscosity (314.94 K) was 5.47 mPa·s, the viscosity (315.04 K) was 5.22 mPa·s and the viscosity (315.1 K) was 5.14 mPa·s. It also gave a viscosity (315.15 K) of 5.09 mPa·s, a viscosity (315.2 K) of 5.04 mPa·s and a viscosity (315.24 K) of 5 mPa·s. It also gave a viscosity (315.3 K) of 4.96 mPa·s, a viscosity (315.44 K) of 4.87 mPa·s and a viscosity (315.54 K) of 4.83 mPa·s. The viscosity (315.58 K) was 4.8 mPa·s, the viscosity (315.71 K) was 4.76 mPa·s and the viscosity (315.75 K) was 4.74 mPa·s. For the same compound, the viscosity (315.88 K) was 4.7 mPa·s, the viscosity (315.91 K) was 4.69 mPa·s and the viscosity (315.94 K) was 4.68 mPa·s. It also gave a viscosity (315.98 K) of 4.67 mPa·s, a viscosity (316.07 K) of 4.64 mPa·s and a viscosity (316.22 K) of 4.6 mPa·s. The viscosity (316.42 K) was 4.54 mPa·s, the viscosity (316.73 K) was 4.46 mPa·s and the viscosity (317.23 K) was 4.35 mPa·s. It also gave a viscosity (319.34 K) of 3.98 mPa·s, a viscosity (321.14 K) of 3.74 mPa·s and a viscosity (323.16 K) of 3.51 mPa·s. The viscosity (325.69 K) was 3.262 mPa·s and the viscosity (328.15 K) was 3.047 mPa·s.
